Test systems include A498 renal; BT-549 breast; HCT-116 colon; HCT-15 colon; HL-60(TB) leukemia; NCI-H226 lung; SF-295 CNS; OVCAR-4 ovarian; SK-MEL-5 melanoma; UO-31 renal.
What all share (assay): growth of human tumour cells (NCI), 48 h

Where “and” joins values, the source holds several entries; their conditions need not be identical. Identical values can stand only once.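 Method: 48-hour compound exposure of cells in 96-well plates, five concentrations, linear interpolation of endpoints. GI50 is the concentration that inhibits growth by half. TGI is the concentration that stops growth completely.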 Where a SMILES comes first, the peptide text is derived from it. [ ]: non-standard residue; d: D form. The star is where a group is joined. X28 = COC1=CC(=O)N(C(=O)[C@@H](O*)C(C)C)[C@H]1Cc1ccccc1; NMeL = CN[C@@H](CC(C)C)C(=O)O; Hexanoyl = CCCCCC(=O)* Some results are limits rather than exact numbers.

Turning to `O=c1[nH]c2ccc(CC(=S)N3CCN(c4ccccc4)CC3)cc2s1`, the TGI was greater than 100 µM in the test on A498 renal; greater than 100 µM with BT-549 breast; greater than 100 µM in the test with HCT-116 colon; greater than 100 µM in the test with HCT-15 colon; greater than 100 µM in the test on HL-60(TB) leukemia; 69.6 µM in the test on NCI-H226 lung. The molecule further registered a TGI in the test with SF-295 CNS greater than 100 µM.
Turning to `COc1ccc2c(c1)CCC(CN1CCN(CCOC(c3ccc(F)cc3)c3ccc(F)cc3)CC1)=C2`, the TGI in the test with A498 renal came out at 48.1 µM; with BT-549 breast, 35.6 µM; in the test on HCT-116 colon it was 21.2 µM; in the test with HCT-15 colon, 57.8 µM; in the test on HL-60(TB) leukemia it was 30.3 µM; with NCI-H226 lung it was 30.6 µM. The TGI with OVCAR-4 ovarian was greater than 100 µM; in the test on SF-295 CNS it was 87.2 µM; in the test with SK-MEL-5 melanoma, 18.5 µM.
In the case of `CCCCCC(=O)N[C@H](C(=O)N[C@H](C(=O)N(C)[C@@H](CC(C)C)C(=O)N1CCC[C@H]1C(=O)N1CCC[C@H]1C(=O)O[C@H](C(=O)N1C(=O)C=C(OC)[C@@H]1Cc1ccccc1)C(C)C)C(C)C)C(C)C` (Hexanoyl-VV[NMeL]PP-X28), the TGI is greater than 100 µM with A498 renal; greater than 100 µM with BT-549 breast; greater than 100 µM in the test with HCT-116 colon; greater than 100 µM in the test on HCT-15 colon; 6.2 µM in the test with HL-60(TB) leukemia; greater than 100 µM in the test with NCI-H226 lung. The TGI in the test with OVCAR-4 ovarian and in the test on SF-295 CNS was greater than 100 µM in each case.
For the molecule `NC12c3c4cccc3Oc3cccc(c31)Oc1cccc(c12)O4`, the TGI with A498 renal, in the test with BT-549 breast, with HCT-116 colon, in the test with HCT-15 colon, in the test on HL-60(TB) leukemia and in the test on NCI-H226 lung was greater than 50 µM in each case. Also, the TGI in the test on OVCAR-4 ovarian, in the test with SF-295 CNS and in the test with UO-31 renal was greater than 50 µM each time.
With `CC(C)=NN/C(=N\S(=O)(=O)c1cc(Cl)c(Oc2ccc([N+](=O)[O-])cc2Cl)c(Cl)c1)Nc1ccc(Cl)cc1`, the TGI in the test with BT-549 breast, in the test with HCT-116 colon, in the test on HCT-15 colon, in the test with HL-60(TB) leukemia, in the test on NCI-H226 lung and in the test on OVCAR-4 ovarian was greater than 100 µM each time. The TGI with SF-295 CNS, in the test with SK-MEL-5 melanoma and in the test with UO-31 renal was greater than 100 µM throughout.
Consider `CC(C)(C)[Si](C)(C)OCC1OC(n2ccc(=O)[nH]c2=O)C(O[Si](C)(C)C(C)(C)C)/C1=N/O` (configuration not stated), for which the TGI with A498 renal is 16.5 µM; in the test with BT-549 breast it was greater than 40.5 µM; in the test with HCT-116 colon, 7.11 µM; with HCT-15 colon, 12.1 µM; in the test on NCI-H226 lung, 9.24 µM; in the test on OVCAR-4 ovarian it was 17.8 µM. For the same molecule, the TGI with SF-295 CNS is greater than 40.7 µM; with SK-MEL-5 melanoma it was 6.07 µM; in the test with UO-31 renal, 14.5 µM.
Consider `Cc1cn2c(/C=C3/C(=O)Nc4ccccc43)c(-c3ccccc3)nc2s1`, for which the TGI with A498 renal, in the test on BT-549 breast, with HCT-116 colon, in the test with HCT-15 colon, in the test on HL-60(TB) leukemia and with SF-295 CNS was greater than 100 µM in each case. Further, the results for the TGI in the test with SK-MEL-5 melanoma and in the test on UO-31 renal were greater than 100 µM and 61.2 µM, respectively.
On to `COc1cccc(-n2nnc3c(N)nc(N)nc32)c1`, for which the TGI with A498 renal, in the test with BT-549 breast, with HCT-116 colon, in the test with HCT-15 colon, with HL-60(TB) leukemia and in the test with NCI-H226 lung was greater than 100 µM in each case. The TGI with OVCAR-4 ovarian, in the test on SF-295 CNS and in the test with SK-MEL-5 melanoma was greater than 100 µM in each case.
Turning to `CC(=O)OCc1ccc(-c2nc(C#N)c(N)o2)o1`, the TGI in the test on BT-549 breast, with HCT-116 colon, with HCT-15 colon, in the test on HL-60(TB) leukemia, with NCI-H226 lung and in the test on OVCAR-4 ovarian was greater than 10 µM throughout. Further, the TGI in the test on SF-295 CNS, in the test on SK-MEL-5 melanoma and with UO-31 renal was greater than 10 µM throughout.
Take `CC(=O)OCC1OC(n2c(-c3ccccc3)c(N=Nc3ccc(Cl)cc3)c(C)c(C#N)c2=S)C(OC(C)=O)C(OC(C)=O)C1OC(C)=O` (configuration not stated): the GI50 is 2.78 µM and 19.1 µM with A498 renal; 5.4 µM and 17.9 µM in the test with BT-549 breast; 6.61 µM and 30.2 µM with HCT-116 colon; 7.59 µM and 59.8 µM in the test on HCT-15 colon; 23 µM and 8.03 µM in the test on HL-60(TB) leukemia; 13.8 µM and 31.8 µM in the test with OVCAR-4 ovarian. Further, the GI50 was 25.2 µM and 56.7 µM with SF-295 CNS; 4.01 µM and 10.4 µM with SK-MEL-5 melanoma; 5.87 µM and 47.3 µM in the test with UO-31 renal. Also, the TGI in the test with A498 renal is 43.5 µM and 70.7 µM; in the test on BT-549 breast, 20.1 µM and 58.8 µM; with HCT-116 colon it was greater than 100 µM; with HCT-15 colon it was 29.1 µM and > 100 µM; with HL-60(TB) leukemia, greater than 100 µM; with OVCAR-4 ovarian, greater than 100 µM. Besides, the TGI is greater than 100 µM in the test on SF-295 CNS; 14.4 µM and 54.8 µM in the test with SK-MEL-5 melanoma; 27.1 µM and > 100 µM with UO-31 renal.
As for `CC(=O)C1=CC=C/C1=N\Nc1ccccc1`, the TGI was 27.4 µM in the test on BT-549 breast; 17.5 µM in the test on HCT-116 colon; 19.2 µM with HCT-15 colon; 5.5 µM in the test on HL-60(TB) leukemia; 39.8 µM in the test with NCI-H226 lung; 20.1 µM with OVCAR-4 ovarian. Also, the TGI in the test with SF-295 CNS is 28.2 µM; with SK-MEL-5 melanoma, 29.8 µM; in the test with UO-31 renal it was 25.8 µM.
Consider `COC(=O)CCCc1ccc2c(c1)CCC2`, for which the TGI in the test on BT-549 breast, in the test on HCT-116 colon, with HCT-15 colon, in the test with HL-60(TB) leukemia, in the test with NCI-H226 lung and in the test with OVCAR-4 ovarian was greater than 100 µM in each case. The TGI with SF-295 CNS, in the test with SK-MEL-5 melanoma and with UO-31 renal was greater than 100 µM throughout.
Take `CC1OC(OC2C(CO)OC(O[C@H]3CC[C@@]4(C)C(=CC[C@H]5[C@@H]6C[C@@H]7O[C@](O)(CC[C@@H](C)COC8OC(CO)C(O)C(O)C8O)[C@@H](C)[C@@H]7[C@@]6(C)CC[C@@H]54)C3)C(OC3OC(C)C(O)C(O)C3O)C2O)C(O)C(O)C1O` (some centres not stated): the TGI with A498 renal was greater than 100 µM; in the test on BT-549 breast, 11.1 µM; with HCT-116 colon it was 4.76 µM; with HCT-15 colon it was 3.91 µM; in the test with HL-60(TB) leukemia it was 4.14 µM; in the test with OVCAR-4 ovarian, 20.8 µM. Also, the TGI in the test with SF-295 CNS is 11.8 µM; in the test on SK-MEL-5 melanoma, 11.6 µM; with UO-31 renal it was 8.39 µM.

The values are drawn from PubChem BioAssay (NCI).
